“Also recorded” adds a separate entry of the source. Like-named read-outs stand apart in the source and are kept apart here.
What was measured:
[1] = tested on: HCT-116 colon carcinoma cell line; experiment: Growth inhibition experiments (MTT, 5 d), HCT-116; format: cell-based, human
Method: (§1) Cells were seeded at 6×10^3 cells per well of 96-well plates (Corning CellBind®) in 180 μl complete medium and directly treated with chondramides dissolved in methanol in a serial dilution. Each compound was tested in duplicate for 5 d, as well as the internal methanol control. After 5 d incubation, 20 μl of 5 mg/ml MTT (Mosmann, T. (1983). Rapid Colorimetric Assay for Cellular Growth and Survival: Application to Proliferation and Cytotoxicity Assays. J. Immunol. Meth. 65, 55-63) in PBS was added per well and it was further incubated for 2 h at 37° C. The medium was then discarded and cells were washed with 100 μl PBS before adding 100 μl 2-propanol/10 N HCl (250:1) in order to dissolve formazan granules. The absorbance at 570 nm was measured using a microplate reader (EL808, Bio-Tek Instruments Inc.), and cell viability was expressed as percentage relative to the respective methanol control. GI50 values were obtained by sigmoidal curve fitting. Testing of fractions was performed likewise using 1.2×10^4 cells per well. Samples were dissolved in cell culture medium and cells were treated for 2 d before adding MTT. Viability was expressed relative to the untreated control.

[2] = tested on: KB-3.1: human cervical carcinoma; experiment: Growth inhibition experiments (GI50), KB-3.1; format: cell-based; conditions: for GI50 KB-3.1: group A derivatives, small panel of cancer cell lines, KB-3.1 human cervical carcinoma; for GI50 values KB-3.1: Table 1
[3] = tested on: human U-2 OS osteosarcoma cell line; experiment: Growth inhibition experiments (MTT, 5 d), U-2 OS; format: cell-based
Method: as §1

[4] = tested on: RAW246.7: murine leukemic monocyte macrophages; experiment: Growth inhibition experiments (GI50), RAW246.7; format: cell-based; conditions: group A derivatives, small panel of cancer cell lines
[5] = tested on: HUVEC, human umbilical vein endothelial cells (primary cells); experiment: Growth inhibition experiments (MTT, 5 d), HUVEC; format: cell-based; conditions: Table 1
Source text: (§2) With primary cells (HUVEC, human umbilical vein endothelial cells) and the fibroblast cell line MRC5 this is not the case. Whereas chondramides A˜C are comparably active on both, cancer and non-cancerous cells, brominated chondramide C3 analogs are on average by factor 2-4 less toxic for non-cancerous cells. Accordingly they show a higher selectivity.
(§3) Cell lines were obtained from the American Type Culture Collection (ATCC) and the German Collection of Microorganisms and Cell Cultures (Deutsche Sammlung für Mikroorganismen and Zellkulturen, DSMZ), and HUVEC (single donor) were purchased from PromoCell. Cells were cultured under the conditions recommended by the respective depositor in a standard humidified incubator at 37° C. with 5% CO2.
as §1

[6] = tested on: multidrug resistant (MDR) KB-V.1 cell line; experiment: Growth inhibition experiments (MTT, 5 d), KB-V.1; format: cell-based; conditions: Table 1
Method: Cancer Inst. 90, 1559-1563). […] The same applies for most novel derivatives, solely a hydroxyl group at C2′ of the polyketide segment instead of methoxy or simply hydrogen leads to an approximately 10-fold reduced potency. GI50 values of glycosylated derivatives were not determinable precisely in the assay's concentration range.
as §1

[7] = tested on: fibroblast cell line MRC5; experiment: Growth inhibition experiments (MTT, 5 d), MRC5; format: cell-based, human; conditions: Table 1
Method: as §2, §1

L-929 = experiment: Growth inhibition experiments (GI50), L-929; format: cell-based; conditions: Table 1
[8] = target: T1, pyrene-labeled rabbit muscle actin (Oryctolagus cuniculus, UniProt P68135); experiment: Actin polymerization assay (pyrene actin fluorescence); format: biochemical; conditions: 20 μM derivative, 5 μM pyrene actin, non-polymerizing buffer, followed over 85 min
T1 construct: pyrene-labeled rabbit muscle actin; purchased Cytoskeleton, Inc; host or cells: rabbit muscle (tissue-derived; inferred from the name)
Method: A final concentration of 20 μM for each derivative was chosen and polymerization was followed over 85 min.
Fluorescence-based actin polymerization assays were performed using pyrene muscle actin (Cytoskeleton, Inc.) according to the supplier's protocol. Chondramides were dissolved in non-polymerizing buffer (5 mM Tris-HCl pH 8.0, 0.2 mM CaCl2, 0.2 mM ATP, 1 mM DTT) and mixed with pyrene actin diluted in the same buffer to give a final concentration of 20 μM chondramide and 5 μM actin. Samples were prepared in black, low-volume 384-well plates (Corning, NBS™ surface). The fluorescence at 405 nm (excitation at 360 nm) was scanned every 30 s for 85 min at 37° C. on a microplate reader (Spectramax M5^e, Molecular Devices). Experiments were performed in duplicates and the average relative fluorescence of polymerizing pyrene actin is given. Slopes were calculated in the linear range of kinetic measurements.

[9] = tested on: panel of cell lines derived from various origins and tissues (cancer cell lines, non-cancerous cell lines, primary cells); experiment: Growth inhibition experiments (MTT, 5 d), panel of cell lines; format: cell-based; conditions: for growth inhibitory activity in cell lines (in words, compared to chondramides A~C / other derivatives): GI50-based comparison, panel of cell lines
Method: First, the compounds were tested on a small panel of cell lines derived from various origins and tissues. GI50 values were compared to those determined using chondramides A˜C (see Table 1).
as §3, §1
These compounds were profiled regarding their growth inhibitory potential in a panel of cancer cell lines. Natural chondramide A was used as reference:
Biological evaluation of group A derivatives. GI50 values [nM] were determined in a small panel of cancer cell lines.

[10] = group A derivatives, small panel of cancer cell lines, HCT-116 human colon carcinoma, read-out: GI50 HCT-116
[11] = group A derivatives, small panel of cancer cell lines, U-2 OS human osteosarcoma, read-out: GI50 U-2 OS
[12] = Table 1, HCT-116, read-out: GI50 values HCT-116
[13] = Table 1, U-2 OS, read-out: GI50 values U-2 OS

SMILES	GI50 [1, 10]	GI50 KB-3.1 [2]	GI50 [3, 11]	GI50 [4]	GI50 [5]	GI50 values KB-V.1 [6]	GI50 [7]	GI50 [1, 12]	GI50 values KB-3.1 [2]	GI50 (L-929)	GI50 [3, 13]	actin-polymerizing effect (G-actin polymerization in vitro) [8]	growth inhibitory activity in cell lines (in words, compared to chondramides A~C / other derivatives) [9]	GI50 values L-929 (L-929)	GI50 values on human cancer cell lines ([9]; human cancer cell lines, cell-based studies)
CCC1C/C=C(\C)CC(C)C(=O)NC(C)C(=O)N(C)C(C(C)C)C(=O)NC(c2ccc(O)c(Cl)c2)CC(=O)O1 (single isomer, unassigned) [CA6-Fr1]	79.4 nM	71.4 nM	59.6 nM	41.1 nM	–	–	–	–	–	–	–	–	–	–	–
CCC1C/C=C(\C)CC(C)C(=O)NC(C)C(=O)N(C)C(C(C)C)C(=O)NC(c2ccc(O)c(Cl)c2)CC(=O)O1 (single isomer, unassigned) [CA6-Fr2]	101 nM	74.5 nM	65.4 nM	105 nM	–	–	–	–	–	–	–	–	–	–	–
CCC1C/C=C(\C)CC(C)C(=O)NC(C)C(=O)N(C)C(Cc2c(Cl)[nH]c3ccccc23)C(=O)NC(c2ccc(O)c(Cl)c2)CC(=O)O1 (single isomer, unassigned) [CA7-Fr1]	16.3 nM	97.9 nM	53.5 nM	74.7 nM	–	–	–	–	–	–	–	–	–	–	–
CCC1C/C=C(\C)CC(C)C(=O)NC(C)C(=O)N(C)C(Cc2c(Cl)[nH]c3ccccc23)C(=O)NC(c2ccc(O)c(Cl)c2)CC(=O)O1 (single isomer, unassigned) [CA7-Fr2]	0.8 nM	1.9 nM	1.3 nM	1.8 nM	–	–	–	–	–	–	–	–	–	–	–
CC1=CC(C)C(C)OC(=O)CC(c2ccc(O)c(Br)c2)NC(=O)C(Cc2c[nH]c3ccccc23)N(C)C(=O)C(C)NC(=O)C(C)C1 (centres unmarked) [Bromo-Chondramide C3]	–	–	–	–	44.4 ± 7 nM	23.8 ± 2.1 nM	57.7 ± 3.5 nM	17.7 ± 1.3 nM	46.8 ± 6.5 nM	14 ± 1.4 nM	4.8 ± 1.7 nM	–	–	–	–
C/C1=C\CCOC(=O)CC(c2ccc(O)c(Cl)c2)NC(=O)C(Cc2c(Cl)[nH]c3ccccc23)N(C)C(=O)C(C)NC(=O)CC1 (centres unmarked) [CA2]	30.5 nM	375.9 nM	66.7 nM	180 nM	–	–	–	–	–	–	–	–	–	–	–
C/C1=C\CCOC(=O)CC(c2ccc(O)c(Br)c2)NC(=O)C(Cc2c[nH]c3ccccc23)N(C)C(=O)C(C)NC(=O)CC1 (centres unmarked) [CA3]	2.1 nM	6.4 nM	1.8 nM	6.2 nM	–	–	–	–	–	–	–	–	–	–	–
CCC1C/C=C(\C)CCC(=O)NC(C)C(=O)N(C)C(C(C)C)C(=O)NC(c2ccc(O)c(Cl)c2)CC(=O)O1 (centres unmarked) [CA4]	25.5 nM	58.2 nM	> 180 nM	29.8 nM	–	–	–	–	–	–	–	–	–	–	–
CCC1C/C=C(\C)CCC(=O)NC(C)C(=O)N(C)C(C(C)C)C(=O)NC(c2ccc(O)c(Cl)c2)CC(=O)O1 (centres unmarked) [CA5]	77.3 nM	68.7 nM	153 nM	56.2 nM	–	–	–	–	–	–	–	–	–	–	–
CCC1C/C=C(\C)CCC(=O)NC(C)C(=O)N(C)C(Cc2c(Cl)[nH]c3ccccc23)C(=O)NC(c2ccc(O)c(Cl)c2)CC(=O)O1 (centres unmarked) [CA8]	0.2 nM	1.1 nM	0.6 nM	0.8 nM	–	–	–	–	–	–	–	–	–	–	–
C/C1=C\CCOC(=O)CC(c2ccc(O)c(Cl)c2)NC(=O)C(C(C)C)N(C)C(=O)C(C)NC(=O)CC1 (centres unmarked) [CA9]	180 nM	>180 nM	> 180 nM	> 180 nM	–	–	–	–	–	–	–	–	–	–	–
COC1C(=O)OC(C)C(C)C=C(C)CC(C)C(=O)NC(C)C(=O)N(C)C(Cc2c(Cl)[nH]c3ccccc23)C(=O)NC1c1ccc(O)c(Cl)c1 (centres unmarked) [Chondramide A4]	–	–	–	–	52.5 ± 7.4 nM	83.1 ± 1.6 nM	12.7 ± 1.4 nM	44.4 ± 1.6 nM	56.8 ± 7.0 nM	67.6 ± 9.8 nM	26.4 ± 2.2 nM	similarly potent; also recorded: increases the polymerization rate even more drastically	–	–	–
COC1C(=O)OC(C)C(C)C=C(C)CC(C)C(=O)NC(C)C(=O)N(C)C(Cc2c[nH]c3ccccc23)C(=O)NC1c1ccc(OC2OC(C(=O)O)C(O)C(O)C2O)c(Cl)c1 (centres unmarked) [Chondramide A9]	–	–	–	–	–	w.a.	–	–	–	–	–	does not show any actin-polymerizing effect	significantly reduced	w.a.	–
CO[C@@H]1C(=O)O[C@H](C)[C@H](C)/C=C(\C)C[C@H](C)C(=O)N[C@@H](C)C(=O)N(C)[C@H](Cc2c[nH]c3ccccc23)C(=O)N[C@H]1c1ccc(O)cc1 [Chondramide A, reference compound]	91.7 nM	71.6 nM	68.5 nM	47.3 nM	43.7 ± 7 nM	38.0 ± 10.5 nM	63.8 ± 13 nM	48.9 ± 14.6 nM	50.5 ± 15.4 nM	90.9 ± 11.8 nM	27.1 ± 4.1 nM	–	–	–	–
CO[C@@H]1C(=O)O[C@H](C)[C@@H](C)C=C(C)C[C@H](C)C(=O)N[C@@H](C)C(=O)N(C)[C@H](Cc2c(Cl)[nH]c3ccccc23)C(=O)NC1c1ccc(O)cc1 (some centres unmarked) [Chondramide B, reference compound]	–	–	–	–	30.7 ± 2.9 nM	56.4 ± 9.1 nM	20.9 ± 3.2 nM	30.1 ± 9.5 nM	40.7 ± 9.4 nM	80.8 ± 13.6 nM	20.8 ± 1.9 nM	–	–	–	–
C/C1=C\[C@@H](C)[C@@H](C)OC(=O)C[C@H](c2ccc(O)cc2)NC(=O)[C@@H](Cc2c[nH]c3ccccc23)N(C)C(=O)[C@H](C)NC(=O)[C@@H](C)C1 [Chondramide C, reference compound]	–	–	–	–	34 ± 3.7 nM	85.8 ± 14.9 nM	26.1 ± 4.7 nM	33.7 ± 3.2 nM	36.8 ± 6.8 nM	87.3 ± 14.9 nM	25.6 ± 1.2 nM	–	–	–	–
CC1=CC(C)C(C)OC(=O)C(O)C(c2ccc(O)c(Cl)c2)NC(=O)C(Cc2c(Cl)[nH]c3ccccc23)N(C)C(=O)C(C)NC(=O)C(C)C1 (centres unmarked) [Chondramide E4]	–	–	–	–	207 ± 26.4 nM	251.5 ± 79.1 nM	480 ± 63.6 nM	379 ± 30.2 nM	627.2 ± 122.5 nM	555 ± 81.6 nM	352 ± 30.6 nM	decreased ability to polymerize actin	–	–	–
CCC1OC(=O)CC(c2ccc(O)c(Br)c2)NC(=O)C(Cc2c[nH]c3ccccc23)N(C)C(=O)C(C)NC(=O)C(C)CC(C)=CC1C (centres unmarked) [Propionyl-Bromo-Chondramide C3]	–	–	–	–	50.2 ± 5.6 nM	31.9 ± 2.0 nM	130 ± 3.7 nM	17.2 ± 1.6 nM	38.0 ± 6.5 nM	23 ± 2.1 nM	9 ± 0.6 nM	–	the most active in cell-based studies	–	low nanomolar range
